Experimental data reported in patent publication US10639284B2, “Immunomodulator compounds” (CHEMOCENTRYX, INC., priority 2016, dated 2020).
pIC50: −log10 of the molar value. Read-outs that look alike come from different tables or passages of the source.

Target: human PD-L1 / Human PD-1 (Homo sapiens (Human), UniProt Q9NZQ7)
Assay: Enzyme-Linked Immunosorbent Assay (ELISA), PD-1/PD-L1 binding
Protocol: Plates were coated with 1 μg/mL of human PD-L1 (obtained from R&D) in PBS overnight at 4° C. The wells were then blocked with PBS containing 2% BSA in PBS (W/V) with 0.05% TWEEN-20 for 1 hour at 37° C. The plates were washed 3 times with PBS/0.05% TWEEN-20 and the samples were diluted to 1:5 in dilution medium in the ELISA plates. Human PD-1 and biotin 0.3 μg/mL (ACRO Biosystems) were added and incubated for 1 hour at 37° C. then washed 3 times with PBS/0.05% TWEEN-20. A second block was added with PBS containing 2% BSA in PBS (W/V)/0.05% TWEEN-20 for 10 min at 37° C. and was washed 3 times with PBS/0.05% TWEEN-20. Streptavidin-HRP was added for 1 hour at 37° C. then washed 3 times with PBS/0.05% TWEEN-20. TMB substrate was added and reacted for 20 min at 37° C. A stop solution (2 N aqueous H2SO4) was added. The absorbance was read at 450 nm using a micro-plate spectrophotometer.
Compounds in Table 2 and Table 3 were prepared by methods as described in the Examples, and evaluated according to the assay below.

[1] = Table 2, plate-coated human PD-L1, biotinylated human PD-1, read-out: ELISA IC50

Sequence of human PD-L1 / Human PD-1 (Q9NZQ7 19-239): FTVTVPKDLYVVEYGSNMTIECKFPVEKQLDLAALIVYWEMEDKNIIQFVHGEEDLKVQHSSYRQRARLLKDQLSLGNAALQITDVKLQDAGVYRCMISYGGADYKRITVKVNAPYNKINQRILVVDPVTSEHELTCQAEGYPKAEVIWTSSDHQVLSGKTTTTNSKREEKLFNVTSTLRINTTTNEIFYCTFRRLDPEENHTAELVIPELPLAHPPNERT

Compound	pIC50 [1]	pIC50
N#Cc1cncc(COc2cc(O[C@H]3CCc4c(-c5ccc6c(c5F)OCCO6)cccc43)c(Cl)cc2CN2CCC(O)CC2)c1 [Example 2.058]	> 7.00	–
CCOc1cc(O[C@H]2CCc3c(-c4ccc5c(c4F)OCCO5)cccc32)c(Cl)cc1CN1CCC(O)CC1 [Example 2.059]	4.70 to 6.30	–
COc1cccc(-c2cccc3c2CC[C@@H]3Oc2cc(OCc3cncc(C#N)c3)c(CN3CCC[C@H](O)C3)cc2Cl)c1F [Example 2.060]	6.30 to 7.00	–
CCOc1cc(O[C@H]2CCc3c(-c4ccccc4F)cccc32)c(Cl)cc1CN1CCC(O)CC1 [Example 2.061]	4.70 to 6.30	–
N#Cc1cncc(COc2cc(O[C@H]3CCc4c(-c5cc(C#N)ccc5F)cccc43)c(Cl)cc2CN[C@@H](CO)C(=O)O)c1 [Example 2.062]	4.70 to 6.30	–
N#Cc1cncc(COc2cc(O[C@H]3CCc4c(-c5ccccc5F)cccc43)c(Cl)cc2CNCP(=O)(O)O)c1 [Example 2.063]	> 7.00	–
COc1cccc(-c2cccc3c2CC[C@@H]3Oc2cc(OCc3cncc(C#N)c3)c(CN3CC(O)C(C(=O)O)C3)cc2Cl)c1F (stereo partly drawn) [Example 2.064]	> 7.00	–
COc1ccc(Cl)c(-c2cccc3c2CC[C@@H]3Oc2cc(OCc3cncc(C#N)c3)c(CN[C@@H](CO)C(=O)O)cc2Cl)c1 [Example 2.065]	> 7.00	–
COc1cccc(-c2cccc3c2CC[C@@H]3Oc2cc(OCc3cncc(C#N)c3)c(CNCc3ccc(B(O)O)cc3)cc2Cl)c1F [Example 2.066]	4.70 to 6.30	–
Cc1ccc(F)c(-c2cccc3c2CC[C@@H]3Oc2cc(OCc3cncc(C#N)c3)c(CN[C@@H](CO)C(=O)O)cc2Cl)c1 [Example 2.067]	> 7.00	–
Cc1ccc(-c2cccc3c2CC[C@@H]3Oc2cc(OCc3cncc(C#N)c3)c(CN[C@@H](CO)C(=O)O)cc2Cl)c(F)c1 [Example 2.068]	6.30 to 7.00	–
N#Cc1cncc(COc2cc(O[C@H]3CCc4c(-c5cccc(OC(F)(F)F)c5F)cccc43)c(Cl)cc2CN[C@@H](CO)C(=O)O)c1 [Example 2.069]	4.70 to 6.30	–
N#Cc1cncc(COc2cc(O[C@H]3CCc4c(-c5ccc6c(c5F)OCCO6)cccc43)c(Cl)cc2CN2CC(O)C2)c1 [Example 2.070]	> 7.00	–
COc1cccc(-c2cccc3c2CC[C@@H]3Oc2cc(OCc3cncc(C#N)c3)c(CN3CCC(O)CC3)cc2Cl)c1Cl [Example 2.071]	6.30 to 7.00	–
COc1cccc(-c2cccc3c2CC[C@@H]3Oc2cc(OCc3cncc(C#N)c3)c(CN3CC(O)C3)cc2Cl)c1Cl [Example 2.072]	6.30 to 7.00	–
COc1cccc(-c2cccc3c2CC[C@@H]3Oc2cc(OCc3cncc(C#N)c3)c(CN3C[C@H](O)C[C@@H]3C(=O)O)cc2Cl)c1F [Example 2.073]	> 7.00	–
CCCOc1cc(O[C@H]2CCc3c(-c4ccccc4F)cccc32)c(Cl)cc1CN[C@@H](CO)C(=O)O [Example 2.074]	6.30 to 7.00	–
CC1(O)CCN(Cc2cc(Cl)c(O[C@H]3CCc4c(-c5ccccc5F)cccc43)cc2OCc2cncc(C#N)c2)CC1 [Example 2.075]	6.30 to 7.00	–
Cc1cccc(-c2cccc3c2CC[C@@H]3Oc2cc(OCc3cncc(C#N)c3)c(CN3CC(O)C3)cc2Cl)c1F [Example 2.076]	6.30 to 7.00	–
COc1ccc(F)c(-c2cccc3c2CC[C@@H]3Oc2cc(OCc3cncc(C#N)c3)c(CN3CC(O)C3)cc2Cl)c1 [Example 2.077]	6.30 to 7.00	–
COc1cccc(-c2cccc3c2CC[C@@H]3Oc2cc(OCc3cncc(C#N)c3)c(CNCCS(N)(=O)=O)cc2Cl)c1F [Example 2.078]	4.70 to 6.30	–
COc1ccc(F)c(-c2cccc3c2CC[C@@H]3Oc2cc(OCc3cncc(C#N)c3)c(CN3CCC(O)CC3)cc2Cl)c1 [Example 2.079]	6.30 to 7.00	–
N#Cc1cncc(COc2cc(O[C@H]3CCc4c(-c5ccccc5F)cccc43)c(Cl)cc2CN2CCC(F)CC2)c1 [Example 2.093]	4.70 to 6.30	–
N#Cc1cncc(COc2cc(O[C@H]3CCc4c(-c5ccccc5F)cccc43)c(Cl)cc2CN2CCC(F)CC2)c1 [Example 2.094]	–	6.30 to 7.00

Second part, led by results:

pIC50 [1]	Compound	pIC50
6.30 to 7.00	COc1cccc(-c2cccc3c2CCC3Oc2cc(OCc3cncc(C#N)c3)c(CNCCC(N)=O)cc2Cl)c1F (stereo not drawn) [Example 2.080]	–
6.30 to 7.00	COc1cccc(-c2cccc3c2CC[C@@H]3Oc2cc(OCc3cncc(C#N)c3)c(CN3CCC(CO)CC3)cc2Cl)c1Cl [Example 2.081]	–
4.70 to 6.30	COc1cccc(-c2cccc3c2CC[C@@H]3Oc2cc(OCc3cncc(C#N)c3)c(CN3CCOCC3)cc2Cl)c1Cl [Example 2.082]	–
6.30 to 7.00	COc1cccc(-c2cccc3c2CC[C@@H]3Oc2cc(OCc3cncc(C#N)c3)c(CN3CCC(C(N)=O)CC3)cc2Cl)c1Cl [Example 2.083]	–
> 7.00	O=C(O)[C@H](CO)NCc1cc(Cl)c(O[C@H]2CCc3c(-c4ccccc4F)cccc32)cc1OCc1cnc(Cl)nc1 [Example 2.084]	–
4.70 to 6.30	COc1cccc(-c2cccc3c2CCC3CCOc2cc(OCc3cncc(C#N)c3)c(CN[C@@H](CO)C(=O)O)cc2Cl)c1F (stereo partly drawn) [Example 2.085]	–
4.70 to 6.30	COc1cccc(-c2cccc3c2CCC3CCOc2cc(OCc3cncc(C#N)c3)c(CN3CCC(O)CC3)cc2Cl)c1F (stereo not drawn) [Example 2.086]	–
4.70 to 6.30	COc1cccc(-c2cccc3c2CCC3CCOc2cc(OCc3cncc(C#N)c3)c(CN3CCC(O)CC3)cc2Cl)c1F (stereo not drawn) [Example 2.087]	–
4.70 to 6.30	COc1cccc(-c2cccc3c2CCC3CCOc2cc(OCc3cncc(C#N)c3)c(CN3CC(O)C3)cc2Cl)c1F (stereo not drawn) [Example 2.088]	–
4.70 to 6.30	COC(=O)c1cccc(COc2cc(O[C@H]3CCc4c(-c5ccccc5F)cccc43)c(Cl)cc2CN2CCC(O)CC2)c1 [Example 2.089]	–
6.30 to 7.00	N#CCCCCOc1cc(O[C@H]2CCc3c(-c4ccccc4F)cccc32)c(Cl)cc1CN1CCC(O)CC1 [Example 2.090]	–
6.30 to 7.00	CC(C)C[C@H](NCc1cc(Cl)c(O[C@H]2CCc3c(-c4ccccc4F)cccc32)cc1OCc1cncc(C#N)c1)C(=O)O [Example 2.091]	–
6.30 to 7.00	CC(C)C[C@H](NCc1cc(Cl)c(O[C@H]2CCc3c(-c4ccccc4F)cccc32)cc1OCc1cncc(C#N)c1)C(=O)O [Example 2.092]	–
4.70 to 6.30	OC1CCN(Cc2cc(Cl)c(O[C@H]3CCc4c(-c5ccccc5F)cccc43)cc2OCc2ccc(C(F)(F)F)nc2)CC1 [Example 2.095]	–
4.70 to 6.30	OC1CCN(Cc2cc(Cl)c(O[C@H]3CCc4c(-c5ccccc5F)cccc43)cc2OCc2ccc(C(F)(F)F)nc2)CC1 [Example 2.096]	–
4.70 to 6.30	N#Cc1cncc(COc2cc(O[C@H]3CCc4c(-c5ccccc5F)cccc43)c(Cl)cc2CN2CCC(O)C(F)(F)C2)c1 (stereo partly drawn) [Example 2.097]	–
> 7.00	C[C@H](NCc1cc(Cl)c(O[C@H]2CCc3c(-c4ccccc4F)cccc32)cc1OCc1cncc(C#N)c1)C(=O)O [Example 2.098]	–

pIC50 [1]	Compound	pIC50
> 7.00	C[C@@H](O)[C@H](NCc1cc(Cl)c(O[C@H]2CCc3c(-c4ccccc4F)cccc32)cc1OCc1cncc(C#N)c1)C(=O)O [Example 2.100]	–
> 7.00	N#Cc1cncc(COc2cc(O[C@H]3CCc4c(-c5ccccc5F)cccc43)c(Cl)cc2CN[C@H](CO)C(=O)O)c1 [Example 2.102]	–
6.30 to 7.00	COc1cccc(F)c1-c1cccc2c1CC[C@@H]2Oc1cc(OCc2cncc(C#N)c2)c(CN[C@@H](CO)C(=O)O)cc1Cl [Example 2.105]	–
> 7.00	COc1cccc(-c2cccc3c2CC[C@@H]3Oc2cc(OCc3cncc(C#N)c3)c(CN[C@H](C(=O)O)[C@@H](C)O)cc2Cl)c1F [Example 2.106]	–
> 7.00	COc1cccc(-c2cccc3c2CC[C@@H]3Oc2cc(OCc3cncc(C#N)c3)c(CN[C@H](CO)C(=O)O)cc2Cl)c1F [Example 2.107]	–
4.70 to 6.30	COc1cccc(F)c1-c1cccc2c1CC[C@@H]2Oc1cc(OCc2cncc(C#N)c2)c(CN2CCC(O)CC2)cc1Cl [Example 2.108]	–
4.70 to 6.30	OC1CCN(Cc2cc(Cl)c(O[C@H]3CCc4c(-c5ccccc5F)cccc43)cc2OCc2cnc(N3CCC(O)CC3)nc2)CC1 [Example 2.109]	–
4.70 to 6.30	N#Cc1cccc(COc2cc(O[C@H]3CCc4c(-c5ccccc5F)cccc43)c(Cl)cc2CN2CCC(O)CC2)c1 [Example 2.110]	–
6.30 to 7.00	OC1CCN(Cc2cc(Cl)c(O[C@H]3CCc4c(-c5ccccc5F)cccc43)cc2OCc2cnc(Cl)nc2)CC1 [Example 2.111]	–
4.70 to 6.30	N#Cc1cncc(-c2cc(O[C@H]3CCc4c(-c5ccccc5F)cccc43)c(Cl)cc2CN2CCC(O)CC2)c1 [Example 2.112]	–
4.70 to 6.30	N#Cc1cncc(COc2cc(O[C@H]3CCc4c(-c5ccccc5F)cccc43)c(Cl)cc2CN2CC[C@H](O)[C@H](F)C2)c1 [Example 2.113]	–
4.70 to 6.30	N#Cc1cncc(COc2cc(O[C@H]3CCc4c(-c5ccccc5F)cccc43)c(Cl)cc2CN2CC[C@H](O)[C@@H](F)C2)c1 [Example 2.114]	–
> 7.00	N#Cc1cncc(-c2cc(O[C@H]3CCc4c(-c5ccccc5F)cccc43)c(Cl)cc2CN[C@@H](CO)C(=O)O)c1 [Example 2.115]	–
4.70 to 6.30	OC1CCN(Cc2cc(Cl)c(O[C@H]3CCc4c(-c5ccccc5F)cccc43)cc2OCc2cccnc2)CC1 [Example 2.116]	–
> 7.00	N#Cc1cncc(COc2cc(O[C@H]3CCc4c(-c5ccccc5F)cccc43)c(Cl)cc2CN[C@@H](CCC(=O)O)C(=O)O)c1 [Example 2.117]	–
> 7.00	N#Cc1cncc(COc2cc(O[C@H]3CCc4c(-c5ccccc5F)cccc43)c(Cl)cc2CN[C@@H](CC(N)=O)C(=O)O)c1 [Example 2.118]	–
